Results: patent US5567693A, “Method for inhibiting angiogenesis, proliferation of endothelial or tumor cells and tumor growth” (American Cyanamid Company, priority 1994, dated 1996)
Where a name gives a salt, the structure may show the parent alone. Read-outs that look alike come from different tables or passages of the source.

How the values were obtained:
Assay type in all cases: cell-based
[1] = system: HTB 161; assay: Antiproliferative activity in human tumor cell lines: HTB 161 (ovarian); details: HTB 161 ovarian tumor, PROTOCOL 1 and PROTOCOL 2, 48 hours
Experimental: The assays are identified as follows:
(§1) PROTOCOL 1,2,and 3 are described in greater detail hereinbelow. In general, according to PROTOCOLS 1 and 2, the target ABAE and/or Human Tumor cells are exposed to the compounds of Formula I for 48 hours. PROTOCOL 3 exposes ABAE cells to the compounds for 4 days. A detailed description of the protocols is as follows:
(§2) The antiproliferative activity of the compounds of Formula I of the present invention is evaluated in a panel comprised of human tumor cell lines and an adult bovine aortic endothelial cell line (ABAE). The human tumor cell lines are from
Cultures are renewed after 20 passages with cells from a fresh stock of batch-frozen early passage cells. Cell lines are routinely checked for mycoplasma contamination (Genprobe). In a laminar flow hood, cells (1-5×10^4) are plated into 96-well microtiter plates in a volume of 0.1 ml/well with a bulk microtiter dispenser (Denley). […] Compounds are added using a Tomtec dispenser which simultaneously dispenses from one 96-well plate, containing the drug dilutions, to the plates containing the cells. After two days of continuous drug exposure, 50% cold trichloroacetic acid (TCA) is added to 10% final concentration to fix the cells, and after 60 minutes at 4° C., the TCA is aspirated and the plates are washed 5 times with deionized water using a microtiter plate washer. […] A 0.4% solution of the dye, sulforhodamine B, in […] is added to the plates, and the plates are washed 5 times with 1% glacial acetic acid using the automatic plate washed. The bound stain is solubilized with 0.1 ml of 10 mM Tris base. The optical densities are read from an automatic spectrophotometric plate reader (Dynatech) directly to a main frame computer (VAX 8600).
(§3) Positive controls, that include standard chemotherapeutic drugs (i.e., Adriamycin, Cisplatin, etc.), are included in every experiment.
(§4) Background optical density measurements (complete media-cells, and complete media+drug-cells) are automatically subtracted from the appropriate control and test wells. Mean values and standard errors are determined from duplicate wells. A measure is also made of the optical density at time when the drugs are added. The number of cells after treatment (P), as % of control, is calculated for every concentration of drug, as follows: [formula] wherein: T is optical density measurement for treated cells after 48 hours;
(§5) C is optical density measurement for untreated cells after 48 hours;
(§6) Co is optical density measurement for cells at the time of drug addition.
(§7) IC50 of growth inhibition is calculated from the sets of P values using the RS-1 data package (BBN Software).
(§8) The antiproliferative activity of the compounds of Formula I is evaluated in a panel comprised of human tumor cell lines and an adult bovine aortic cell line (ABAE) as listed in PROTOCOL 1. This assay is a modification of PROTOCOL 1. The modifications include:
(§9) 1) each concentration for each compound is tested in a single well;
(§10) 2) compounds are tested at 20, 4, 0.8, 0.16 microgram/ml and additionally in some experiments at 100 and 0.32 microgram/ml;
(§11) 3) samples are pipetted into a 96-well plate for each of the cell lines by a Beckman Biomek 1000 SL robot;
(§12) 4) after fixing with TCA each well is washed with 0.35 ml distilled water twice, not five times;
5) after staining with sulforhodamine B each well is washed 3 times, not five times;
6) the growth inhibition (I) as % of control, is calculated using the RS-1 data package (BBN Software), for every concentration of drug, as follows: [formula] wherein: T is optical density measurement for treated cells after 48 hours;
7) IC50 of growth inhibition is determined graphically from dose response curves, as is known in the art.

[2] = system: SW620; assay: Antiproliferative activity in human tumor cell lines: SW620 (colon)
Experimental: (§13) The antiproliferative activity of the compounds of Formula I in an Adult Bovine Aortic Endothelial (ABAE) cell line and in Human Tumor cell lines is evaluated in three similar assays that measure growth inhibition. The assays are identified as follows:
as §1, §2
(§14) All cell lines are maintained in log phase in RPMI 1640 media, supplemented with 5% fetal calf serum, penicillin/streptomycin and 2 mM L-glutamine. Cultures are renewed after 20 passages with cells from a fresh stock of batch-frozen early passage cells. Cell lines are routinely checked for mycoplasma contamination (Genprobe). In a laminar flow hood, cells (1-5×10^4) are plated into 96-well microtiter plates in a volume of 0.1 ml/well with a bulk microtiter dispenser (Denley). […] At this concentration, dimethylsulfoxide has no effect on cell growth. Compounds are added using a Tomtec dispenser which simultaneously dispenses from one 96-well plate, containing the drug dilutions, to the plates containing the cells. After two days of continuous drug exposure, 50% cold trichloroacetic acid (TCA) is added to 10% final concentration to fix the cells, and after 60 minutes at 4° C., the TCA is aspirated and the plates are washed 5 times with deionized water using a microtiter plate washer. The number of cells on the plate are quantitated using a protein dye-binding assay (Monks et al., 1991). A 0.4% solution of the dye, sulforhodamine B, in glacial acetic acid is added to the plates, and the plates are washed 5 times with 1% glacial acetic acid using the automatic plate washed. The bound stain is solubilized with 0.1 ml of 10 mM Tris base. The optical densities are read from an automatic spectrophotometric plate reader (Dynatech) directly to a main frame computer (VAX 8600).
as §3, §4, §5, §6, §7, §8, §9, §10, §11, §12
(§15) 5) after staining with sulforhodamine B each well is washed 3 times, not five times; […]

[3] = system: Human Tumor cell lines; assay: Antiproliferative activity in the panel of human tumor cell lines; details: for IC50: Homo sapiens, average over the 6 tumor cell lines
Experimental: as §13, §1, §2, §14, §3, §4, §5, §6, §7, §8, §9, §10, §11, §12, §15

[4] = system: Adult Bovine Aortic Endothelial (ABAE) cell line; assay: Antiproliferative activity in ABAE cell line, PROTOCOL 3 (4 day assay)
Experimental: as §13, §1
Antiproliferative Activity in Adult Bovine Aortic Endothelial (ABAE) Cell Line
ABAE cells are grown in DMEMmedia (Mediatech, Washington, D.C.) supplemented with 10% calf serum (Hyclone). ABAE cells are plated in 24-well dishes at 8,000 cells/well, followed by the addition of increasing concentrations of 7-(hydrogen or di(C1 -C4)alkylamino)-8-halogen-9-(substituted)-6-demethyl-6-deoxytetracycline. After four days, the cells are detached and counted. […] The growth inhibition (I) as % of control is calculated as follows: [formula] wherein: Nc is the number of cells in untreated wells;
Nt is the number of cells in treated wells;
No is the number of plated cells.
IC50 of growth inhibition is determined from the sets of I values plotted by Kaleidograph software (Abelbeck Software).
In addition FIG. 1, presents the dose response curve for the compound of Example 10 for the above ABAE cell line obtained by using PROTOCOL 3.

[5] = SW-620, SW620 colon tumor, PROTOCOL 1 and PROTOCOL 2, 48 hours, read-out: IC50

Row | SMILES | IC50 [1] [µg/mL] | IC50 [2, 5] [µg/mL] | IC50 [3] [µg/mL] | inhibition of cell growth at the highest concentrations ([3]; FIG. 2, 6 Human Tumor cell lines, highest concentrations) | Dead floating cells ([3]; at the highest concentration) | IC50 ([2]; SW-620, 48 h) [µg/mL] | activity upon incubation with cells ([4]; 4 day assay (PROTOCOL 3)) | IC50 ([4]; Bos taurus, 96 h, PROTOCOL 3, 4 day assay, read-out: inhibits 50% of cell growth) [µg/mL]
1 | CN(C)CC(=O)Nc1c(Cl)cc2c(c1O)C(=O)C1=C(O)[C@]3(O)C(=O)C(C(N)=O)=C(O)[C@@H](N(C)C)C3CC1C2 (stereo partly drawn) [Example 3, [4S-(45, 12aα)]-8-Chloro-4-(dimethylamino)-9[[(dimethylamino)acetyl]amino]-1,4,4a,5,5a,6,11,12a-octahydro-3,10,12,12a-tetrahydroxy-1,11-dioxo-2-naphthacenecarboxamide disulfate] | 1 | 2.3 | 1.9 |  |  |  |  | 
2 | CCCCNCC(=O)Nc1c(Cl)cc2c(c1O)C(=O)C1=C(O)[C@]3(O)C(=O)C(C(N)=O)=C(O)[C@@H](N(C)C)C3CC1C2 (stereo partly drawn) [Example 4, [4S-(4α, 12aα)]-9-[[(Butylamino)acetyl]amino]-8-chloro-4-(dimethylamino) -1,4,4a,5,5a,6,11,12a-octahydro-3,10,12,12a-tetrahydroxy-1,11-dioxo-2-naphthacenecarboxamide dihydrochloride] | 1.2 | 2.8 | 2.5 |  |  |  |  | 
3 | CCCNCC(=O)Nc1c(Cl)cc2c(c1O)C(=O)C1=C(O)[C@]3(O)C(=O)C(C(N)=O)=C(O)[C@@H](N(C)C)C3CC1C2 (stereo partly drawn) [Example 5, [4S-(4α, 12aα)]-8-Chloro-4-(dimethylamino)-1,4,4a,5,5a, 6,11,12a-octahydro-3,10,12,12a-tetrahydroxy-1,11-dioxo-9-[[(propylamino)acetyl]amino]-2-naphthacenecarboxamide dihydrochloride] | 4 | 3.5 | 4.6 | no 100% inhibition of cell growth | not observed |  |  | 
4 | CCCCCNCC(=O)Nc1c(Cl)cc2c(c1O)C(=O)C1=C(O)[C@]3(O)C(=O)C(C(N)=O)=C(O)[C@@H](N(C)C)C3CC1C2 (stereo partly drawn) [Example 6, [4S-(4α, 12aα)]-8-Chloro-4-(dimethylamino)-1,4,4a,5,5a,6,11,12a-octahydro-3,10,12,12a-tetrahydroxy-1,11-dioxo-9-[[(pentylamino)acetyl]amino]-2-naphthacenecarboxamide dihydrochloride] | 0.5 |  | 0.8 |  |  | 0.8 |  | 
5 | CNCC(=O)Nc1c(Cl)cc2c(c1O)C(=O)C1=C(O)[C@]3(O)C(=O)C(C(N)=O)=C(O)[C@@H](N(C)C)C3CC1C2 (stereo partly drawn) [Example 7, [4S-(4α, 12aα)]-8-Chloro-4-(dimethylamino)-1,4,4a,5,5a,6,11,12a-octahydro-3,10,12,12a-tetrahydroxy-1,11-dioxo-9-[[(methylamino)acetyl]amino]-2-naphthacenecarboxamide dihydrochloride] | 1.3 | 4 | 4.3 |  |  |  |  | 
6 | CN(C)[C@@H]1C(O)=C(C(N)=O)C(=O)[C@@]2(O)C(O)=C3C(=O)c4c(cc(Cl)c(NC(=O)CNCC5CC5)c4O)CC3CC12 (stereo partly drawn) [Example 8, [4S-(4α,12aα)]-8-Chloro-9-[[(cyclopropylmethylamino)-acetyl]amino]4-(dimethylamino)-1,4,4a,5,5a,6,11,12a-octahydro-3,10,12,12a-tetrahydroxy-1,11-dioxo-2-naphthacenecarboxamide dihydrochloride] | 1 | 2.4 | 2.45 |  |  |  |  | 
7 | CN(C)[C@@H]1C(O)=C(C(N)=O)C(=O)[C@@]2(O)C(O)=C3C(=O)c4c(cc(Cl)c(NC(=O)CN5CCCC5)c4O)CC3CC12 (stereo partly drawn) [Example 9, [7S-(7α,10aα)]-N-[9-(Aminocarbonyl)-3-chloro-7-(dimethylamino)-5,5a,6,6a,7,10,10a,12-octahydro-1,8,10a,11-tetrahydroxy-10,12-dioxo-2-naphthacenyl]-1-pyrrolidineacetamide dihydrochloride] | 1.9 |  | 1.45 |  |  | 2 |  | 
8 | CN(C)[C@@H]1C(O)=C(C(N)=O)C(=O)[C@@]2(O)C(O)=C3C(=O)c4c(cc(Cl)c(NC(=O)CN5CCCCC5)c4O)CC3CC12 (stereo partly drawn) [Example 10, 7S-(7α,10aα)]-N-[9-(Aminocarbonyl)-3-chloro-7-(dimethylamino)-5,5a,6,6a,7,10,10a,12-octahydro-1,8,10a,11-tetrahydroxy-10,12-dioxo-2-naphthacenyl]-1-piperidineacetamide dihydrochloride] | 0.6 |  | 0.6 |  |  | 0.6 | retains its activity | ~0.4
9 | CN(C)c1c(Cl)cc(O)c2c1CC1CC3[C@H](N(C)C)C(O)=C(C(N)=O)C(=O)[C@@]3(O)C(O)=C1C2=O (stereo partly drawn) [Example 11, [4S-(4α,12aα)]-8-Chloro-4,7-bis(dimethylamino)-1,4,4a,5,5a,6,11,12a-octahydro-3,10,12,12a-tetrahydroxy-1,11-dioxo-2-naphthacenecarboxamide sulfate] | 0.7 | 4.5 | 2.8 |  |  |  |  | 
